Assay results as given in paper PMC11638965, “Leveraging Dual-Ligase Recruitment to Enhance Protein Degradation via a Heterotrivalent Proteolysis Targeting Chimera” (Journal of the American Chemical Society, 2024).
Like-named read-outs stand apart in the source and are kept apart here.

Experiments:
BRD2 = molecular target: T1, BRD2 (Homo sapiens, UniProt P25440); experiment: Live cell kinetic HiBiT degradation assay, HiBiT-BRD2 HEK293 cells; assay type: cell-based; conditions: HiBiT-BRD2 CRISPR knock-in HEK293 cells, live cell kinetic degradation, 24 h; read-out: Dmax 50 BRD2
T1 construct: HiBiT, is appended to the N-terminus of endogenous BRD2, BRD3, and BRD4; endogenous in cells
T1 sequence (P25440 whole entry): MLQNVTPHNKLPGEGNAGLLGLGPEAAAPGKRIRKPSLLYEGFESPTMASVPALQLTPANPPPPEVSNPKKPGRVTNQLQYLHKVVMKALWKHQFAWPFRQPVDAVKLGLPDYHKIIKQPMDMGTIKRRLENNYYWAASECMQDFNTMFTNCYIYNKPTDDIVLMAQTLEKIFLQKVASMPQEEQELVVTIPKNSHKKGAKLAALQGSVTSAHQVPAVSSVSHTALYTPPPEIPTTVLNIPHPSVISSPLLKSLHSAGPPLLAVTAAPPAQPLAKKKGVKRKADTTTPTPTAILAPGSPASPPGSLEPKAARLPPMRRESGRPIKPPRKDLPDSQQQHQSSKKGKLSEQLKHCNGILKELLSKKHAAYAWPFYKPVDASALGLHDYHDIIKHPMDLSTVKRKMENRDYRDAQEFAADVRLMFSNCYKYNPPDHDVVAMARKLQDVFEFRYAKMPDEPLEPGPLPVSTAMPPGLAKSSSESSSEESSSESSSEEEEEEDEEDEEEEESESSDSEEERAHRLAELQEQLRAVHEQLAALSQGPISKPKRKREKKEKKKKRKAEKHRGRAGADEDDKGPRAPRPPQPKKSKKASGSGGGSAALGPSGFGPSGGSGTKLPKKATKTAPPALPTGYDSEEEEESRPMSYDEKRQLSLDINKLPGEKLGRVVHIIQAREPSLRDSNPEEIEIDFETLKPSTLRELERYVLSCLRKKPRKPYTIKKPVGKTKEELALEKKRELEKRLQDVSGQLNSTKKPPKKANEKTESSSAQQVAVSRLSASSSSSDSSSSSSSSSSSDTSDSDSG
Method: (§1) HEK293 HiBiT-BRD2 (LgBiT stable), HEK293 HiBiT-BRD3 (LgBiT stable), and HEK293 HiBiT-BRD4 (LgBiT stable) were created using CRISPR/Cas9 to insert at HiBiT tag at the N-terminal genomic loci of BRD2, BRD3, or BRD4 in a cell line stably expressing LgBiT protein as described previously.[23]
(§2) For kinetic degradation experiments, HEK293 HiBiT-BRD2, 3, or 4 (LgBiT stable) cells and HEK293 HiBiT-BRD4 (LgBiT) CRBN KO and VHL KO cells were plated at 20,000 cells/well in DMEM +10% FBS in white 96-well tissue culture plates and allowed to adhere overnight. The next day, media was removed and 90 μL of prewarmed CO2-independent medium (Gibco) containing Endurazine (Promega) at a 1:100 dilution from stock was added. Plates were incubated at 37 °C for 3 h to allow luminescence to equilibrate. A threefold dilution series of each PROTAC at 10x the desired final concentration was prepared (with the amount of DMSO in each treatment condition kept constant). After luminescence equilibration, a preread luminescence measurement was taken (prior to compound addition) to allow for baseline normalization to account for possible plating differences. Cells were then treated with 10 μL of the prepared PROTAC dilution series (in triplicate or quadruplicate). Treated plates were placed in a GloMax Discover luminometer (Promega) prewarmed to 37 °C and luminescence measurements were obtained every 7 min for 24 h. Kinetic degradation plots were obtained by first normalizing time course luminescence readings in each well to the preread measurement, then to the average value of the DMSO only control at each time point. Data was analyzed using GraphPad Prism (version 8) and excel. Dmax values were identified as the lowest luminescence reading in each well. Rate constant values were calculated using a one phase exponential decay Y = (Y0-Plateau) e(K*^X) + Plateau using Prism (Y0 constrained to 1). Dmax 50 values were calculated by plotting Dmax as a function of concentration, then fitting plots using the following equation: [drawing 1] to determine IC50.

BRD3 = molecular target: T2, BRD3 (Homo sapiens, UniProt Q15059); experiment: Live cell kinetic HiBiT degradation assay, HiBiT-BRD3 HEK293 cells; assay type: cell-based; conditions: HiBiT-BRD3 CRISPR knock-in HEK293 cells, live cell kinetic degradation, 24 h; read-out: Dmax 50 BRD3
T2 construct: HiBiT, is appended to the N-terminus of endogenous BRD2, BRD3, and BRD4; endogenous in cells
T2 sequence (Q15059 whole entry): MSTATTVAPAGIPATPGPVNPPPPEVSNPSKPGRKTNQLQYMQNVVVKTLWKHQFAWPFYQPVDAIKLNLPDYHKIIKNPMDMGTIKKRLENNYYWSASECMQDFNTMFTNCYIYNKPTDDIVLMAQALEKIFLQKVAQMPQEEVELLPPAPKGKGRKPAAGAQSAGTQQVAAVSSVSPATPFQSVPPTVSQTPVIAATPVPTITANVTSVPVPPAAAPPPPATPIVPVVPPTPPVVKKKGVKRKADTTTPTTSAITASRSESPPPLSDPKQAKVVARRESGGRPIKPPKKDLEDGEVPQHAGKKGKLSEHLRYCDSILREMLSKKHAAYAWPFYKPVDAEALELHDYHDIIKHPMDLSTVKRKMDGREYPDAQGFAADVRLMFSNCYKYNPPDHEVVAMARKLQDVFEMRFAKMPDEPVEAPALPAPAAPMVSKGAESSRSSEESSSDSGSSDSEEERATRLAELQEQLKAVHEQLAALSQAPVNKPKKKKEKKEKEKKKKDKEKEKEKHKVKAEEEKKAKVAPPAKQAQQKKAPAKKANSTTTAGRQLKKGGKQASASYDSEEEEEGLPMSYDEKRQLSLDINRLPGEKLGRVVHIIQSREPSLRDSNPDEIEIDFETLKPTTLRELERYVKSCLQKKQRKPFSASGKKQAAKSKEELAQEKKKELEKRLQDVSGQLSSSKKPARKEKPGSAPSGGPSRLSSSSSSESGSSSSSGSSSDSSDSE
Method: as §1, §2

BRD4 = BRD4 (Homo sapiens, UniProt O60885); experiment: Live cell kinetic HiBiT degradation assay, HiBiT-BRD4 HEK293 cells (parental, CRBN KO, VHL KO); assay type: cell-based; conditions: for fold drop in BRD4 degradation potency (Dmax 50) when CRBN recruitment was outcompeted by pomalidomide: 20 μM pomalidomide vs vehicle, HiBiT-BRD4 HEK293 cells; for EC50: HiBiT-BRD4 CRISPR knock-in HEK293 cells, live cell kinetic degradation, 24 h, read-out: Dmax 50 BRD4
Method: as §1, §2
HiBiT-BRD4 (LgBiT stable) HEK293 cells (Promega) were used to generate both VHL KO HiBiT-BRD4 (LgBiT stable) and CRBN KO HiBiT-BRD4 (LgBiT stable) cell lines. For VHL, gRNAs targeting exon 1 ([…]) and exon 2 ([…]) and for CRBN, gRNAs targeting exon 3 ([…]) and exon 6 ([…]) were purchased from IDT DNA (Table 5). For each gRNA, tracrRNA/crRNA duplexes were formed by combining 10 μL of 100 μM Alt-R […] (IDT), 100 μM Alt-R crRNA (IDT) and heating at 95C for 5 min, then were allowed to cool to room temp for 20 min. RNPs were then formed by combining 75 pmol Cas9 (IDT) with 2.4 μL total of prepared tracrRNA/crRNA complex (1.2 μL for each gRNA targeting each exon). Cells were then trypsinized and resuspended at 10,000,000 cells/mL in 1 mL of Mirus Ingenio electroporation solution. Three μL of 100 μM electroporation enhancer (Mirus) was added, along with 3 μL of RNP solution. Cells were electroporated in 2 mm cuvettes using a BioRad system (190 V, 950 μF, infinite resistance) and were then plated in a T75 flask in full growth medium to allow for recovery. After recovery from electroporation, knockout pools were sorted for single cells in 96-well tissue culture treated plates. Clonal populations which expanded from single cells were then screened for loss of function of VHL by treating with MZ1, or loss of function of CRBN by treating with dBET6, using a HiBiT-BRD4 luminescent readout assay. Genomic DNA isolated from candidate clones was then PCR-amplified (Table of primers below), Gibson-assembled into a pF1A plasmid backbone, transformed into E. coli., and then Sanger sequenced to confirm presence of indels in the targeted exons. […] VHL exon 3 carried a 19 bp deletion on one allele, and a 1 bp insertion on the other allele, both occurring after the premature stop codon in exon 1.

RKO WT cells = experiment: cells; assay type: cell-based, human
Method: (§3) RKO WT, VHL KO, CRBN KO and CRBN/VHL dKO cells were cultured in Dulbecco’s modified Eagle’s medium supplemented with 10% FCS and 1% penicillin–streptomycin. RKO CRBN KO and VHL KO were generated previously.[45] RKO CRBN/VHL dKO cells were generated by transiently expressing pSpCas9(BB)-2A-GFP (PX458) (Addgene 48138) loaded with a short guide RNA (sgRNA) targeting VHL (Fwd: […], Rev: […]) in RKO CRBN KO cells. Clones were single cell seeded and checked for VHL and CRBN double deletion via Western blot or PCR on genomic DNA (gDNA).
Cells were seeded in 96-well plates at a cell density of 3750 cells per well and treated for 3 days with DMSO or drug at ten √10 serial diluted concentrations. […] Cell viability was assessed using the CellTiter-Glo assay (CellTiter-Glo Luminescent Cell Viability Assay, Promega G7573) according to manufacturer instructions. Luminescence signal was measured on a Multilabel Plate Reader Platform Victor X3 model 2030 (PerkinElmer). Survival curves and EC50 values were determined using GraphPad Prism v.10.0.3 by fitting a nonlinear regression to the log10-transformed drug concentration and the relative viability after normalization of each data point to the mean luminescence of the lowest drug concentration.

RKO CRBN KO cells = experiment: Cell viability assay (CellTiter-Glo); assay type: cell-based, human
Method: as §3
(§4) Cells were seeded in 96-well plates at a cell density of 3750 cells per well and treated for 3 days with DMSO or drug at ten √10 serial diluted concentrations. Starting concentration for all drugs was 10 μM, and each treatment was performed in biological triplicates. Cell viability was assessed using the CellTiter-Glo assay (CellTiter-Glo Luminescent Cell Viability Assay, Promega G7573) according to manufacturer instructions. Luminescence signal was measured on a Multilabel Plate Reader Platform Victor X3 model 2030 (PerkinElmer). Survival curves and EC50 values were determined using GraphPad Prism v.10.0.3 by fitting a nonlinear regression to the log10-transformed drug concentration and the relative viability after normalization of each data point to the mean luminescence of the lowest drug concentration.

RKO CRBN/VHL dKO cells = experiment: Cell viability assay (CellTiter-Glo); assay type: cell-based, human; conditions: read-out: EC50 RKO CRBN/VHL dKO
Method: as §3, §4

RKO VHL KO cells = experiment: Cell viability assay (CellTiter-Glo); assay type: cell-based, human
Method: as §3, §4

K562 cells = experiment: Cell viability assay (CellTiter-Glo); assay type: cell-based, human; conditions: WT K562, 5.12 pM to 10 uM, n = 3 (Table S4)
Method: as §4, with “[…],” for “3750 cells per well and treated for 3 days with DMSO or drug at ten √10 serial diluted concentrations. Starting concentration for all drugs was 10 μM,”

KBM7 cells = experiment: Cell viability assay (CellTiter-Glo); assay type: cell-based, human; conditions: WT KBM7, 5.12 pM to 10 uM, n = 3 (Table S4)
Method: as §4, with “[…],” for “3750 cells per well and treated for 3 days with DMSO or drug at ten √10 serial diluted concentrations. Starting concentration for all drugs was 10 μM,”

[1] = Homo sapiens, 72 h, 316 pM to 10 μM, 3 days, n = 6 (Figure 3C, Table S1), read-out: EC50 RKO WT
[2] = Homo sapiens, 72 h, 316 pM to 10 μM, 3 days, n = 6 (Figure 3C, Table S1)

Structure (SMILES)	DC50 (BRD2) [nM]	DC50 (BRD3) [nM]	fold drop in BRD4 degradation potency (Dmax 50) when CRBN recruitment was outcompeted by pomalidomide (BRD4) [fold]	EC50 (BRD4) [nM]	EC50 (RKO WT cells; [1]) [nM]	EC50 (RKO CRBN KO cells; [2]) [nM]	EC50 (RKO CRBN/VHL dKO cells; [2]) [nM]	EC50 (RKO VHL KO cells; [2]) [nM]	also measured
Cc1ncsc1-c1ccc(CNC(=O)[C@@H]2C[C@@H](O)CN2C(=O)[C@@H](NC(=O)COCC(C)(COCCOCCOCCNC(=O)C[C@@H]2N=C(c3ccc(Cl)cc3)c3c(sc(C)c3C)-n3c(C)nnc32)COCCOCCOCCNc2cccc3c2C(=O)N(C2CCC(=O)NC2=O)C3=O)C(C)(C)C)cc1 (stereo partly drawn) [MN666 (1), (2S,4R)-1-((20S)-20-(tert-Butyl)-1-((S)-4-(4-chlorophenyl)-2,3,9-trimethyl-6H-thieno[3,2-f][1,2,4]triazolo[4,3-a][1,4]diazepin-6-yl)-14-((2-(2-(2-((2-(2,6-dioxopiperidin-3-yl)-1,3-dioxoisoindolin-4-yl)amino)ethoxy)ethoxy)ethoxy)methyl)-14-methyl-2,18-dioxo-6,9,12,16-tetraoxa-3,19-diazahenicosan-21-oyl)-4-hydroxy-N-(4-(4-methylthiazol-5-yl)benzyl)pyrrolidine-2-carboxamide]	84	23	5.3	37	720	703	1580	336	–
Cc1ncsc1-c1ccc(CNC(=O)[C@@H]2C[C@@H](O)CN2C(=O)[C@@H](NC(=O)COCC(C)(COCCOCCNC(=O)C[C@@H]2N=C(c3ccc(Cl)cc3)c3c(sc(C)c3C)-n3c(C)nnc32)COCCOCCNc2cccc3c2C(=O)N(C2CCC(=O)NC2=O)C3=O)C(C)(C)C)cc1 (stereo partly drawn) [MN675 (2), (2S,4R)-1-((17S)-17-(tert-Butyl)-1-((S)-4-(4-chlorophenyl)-2,3,9-trimethyl-6H-thieno[3,2-f][1,2,4]triazolo[4,3-a][1,4]diazepin-6-yl)-11-((2-(2-((2-(2,6-dioxopiperidin-3-yl)-1,3-dioxoisoindolin-4-yl)amino)ethoxy)ethoxy)methyl)-11-methyl-2,15-dioxo-6,9,13-trioxa-3,16-diazaoctadecan-18-oyl)-4-hydroxy-N-(4-(4-methylthiazol-5-yl)benzyl)pyrrolidine-2-carboxamide]	156	21	3.6	55	489	601	2060	870	EC50 (RKO WT cells; Homo sapiens, WT RKO, 316 pM to 10 μM, n = 3 (Table S4), read-out: EC50 RKO): 445 nM; EC50 (K562 cells; Homo sapiens): 327 nM; EC50 (KBM7 cells; Homo sapiens, KBM-7): 175 nM
Cc1sc2c(c1C)C(c1ccc(Cl)cc1)=N[C@@H](CC(=O)NCCCCCCCCNC(=O)COc1cccc3c1C(=O)N(C1CCC(=O)NC1=O)C3=O)c1nnc(C)n1-2 (some centres unmarked) [dBET6, reference compound]	–	–	–	–	–	–	–	–	EC50 (RKO WT cells; 316 pM to 10 μM, 3 days, n = 6 (Figure 3C, Table S1), read-out: EC50 RKO WT): 281 nM; EC50 (RKO WT cells; 500 pM to 10 μM, 3 days (Figure 10, Table S6), read-out: EC50 RKO WT): 256 nM; EC50 (RKO WT cells; RKO WT, 316 pM to 10 μM, n = 6, combination: dBET6 and MZ1 each from 5 μM (Table S7), read-out: EC50 RKO): 106 nM; EC50 (RKO WT cells; WT RKO, 316 pM to 10 μM, n = 3 (Table S4), read-out: EC50 RKO): 272 nM; EC50 (RKO CRBN KO cells; Figure 10 experiment): > 10000 nM; EC50 (RKO CRBN/VHL dKO cells; both VHL and CRBN knocked out (Figure 3C)): > 10000 nM; EC50 (RKO VHL KO cells; 316 pM to 10 μM, 3 days, n = 6 (Figure 3C, Table S1)): 233 nM; EC50 (RKO VHL KO cells; 500 pM to 10 μM, 3 days (Figure 10, Table S6)): 291 nM; EC50 (K562 cells): 6.4 nM; EC50 (KBM7 cells): 3.7 nM
